Source: ChEMBL document CHEMBL4507267 (2021)

What was measured:
[1] = tested on: Tyrosine-protein kinase ABL1 (Homo sapiens), P00519 [H396P]; details: Compound concentration 1000.0 nM
[2] = tested on: ALK tyrosine kinase receptor (Homo sapiens), Q9UM73 [L1196M]; details: Compound concentration 1000.0 nM
[3] = target: Tyrosine-protein kinase receptor UFO (Homo sapiens) (UniProt P30530); details: Compound concentration 1000.0 nM
[4] = target: Calcium/calmodulin-dependent protein kinase type II subunit beta (Homo sapiens) (UniProt Q13554); details: Compound concentration 1000.0 nM
[5] = target: Cyclin-dependent kinase 3 (Homo sapiens) (UniProt Q00526); details: Compound concentration 1000.0 nM
[6] = target: Cyclin-dependent kinase-like 5 (Homo sapiens) (UniProt O76039); details: Compound concentration 1000.0 nM
[7] = target: Discoidin domain-containing receptor 2 (Homo sapiens) (UniProt Q16832); details: Compound concentration 1000.0 nM
Discoidin domain-containing receptor 2 (Homo sapiens), sequence (Q16832 whole entry, the tested form may be a part): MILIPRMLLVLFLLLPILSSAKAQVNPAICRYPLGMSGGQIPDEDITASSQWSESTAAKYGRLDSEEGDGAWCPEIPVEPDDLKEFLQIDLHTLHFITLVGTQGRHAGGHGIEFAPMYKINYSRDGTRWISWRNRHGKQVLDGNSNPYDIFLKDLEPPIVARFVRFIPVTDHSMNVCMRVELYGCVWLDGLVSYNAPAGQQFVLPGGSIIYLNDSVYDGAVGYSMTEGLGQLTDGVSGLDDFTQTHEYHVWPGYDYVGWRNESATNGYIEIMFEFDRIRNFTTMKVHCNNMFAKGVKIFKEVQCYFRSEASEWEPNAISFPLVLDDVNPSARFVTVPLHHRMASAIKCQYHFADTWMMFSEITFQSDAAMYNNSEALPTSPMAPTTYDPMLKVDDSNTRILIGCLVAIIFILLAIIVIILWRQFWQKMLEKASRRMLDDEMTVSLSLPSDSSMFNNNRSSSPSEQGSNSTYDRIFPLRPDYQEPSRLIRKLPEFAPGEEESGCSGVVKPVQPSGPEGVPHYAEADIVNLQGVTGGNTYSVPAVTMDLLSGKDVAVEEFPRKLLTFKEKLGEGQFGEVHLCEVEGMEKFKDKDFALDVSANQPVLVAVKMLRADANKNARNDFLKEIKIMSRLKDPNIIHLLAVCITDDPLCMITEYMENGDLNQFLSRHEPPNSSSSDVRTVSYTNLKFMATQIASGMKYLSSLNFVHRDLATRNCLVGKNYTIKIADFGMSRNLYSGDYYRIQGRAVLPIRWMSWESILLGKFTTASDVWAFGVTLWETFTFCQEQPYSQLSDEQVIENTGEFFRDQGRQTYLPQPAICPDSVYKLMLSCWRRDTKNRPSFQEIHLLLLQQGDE

[8] = target: Dual specificity tyrosine-phosphorylation-regulated kinase 1A (Homo sapiens) (UniProt Q13627); details: Compound concentration 1000.0 nM
[9] = target: Epidermal growth factor receptor (Homo sapiens) (UniProt P00533); details: Compound concentration 1000.0 nM
[10] = tested on: Epidermal growth factor receptor (Homo sapiens), P00533 [UNDEFINED MUTATION]; details: Compound concentration 1000.0 nM
[11] = target: Vascular endothelial growth factor receptor 3 (Homo sapiens) (UniProt P35916); details: Compound concentration 1000.0 nM
[12] = tested on: eIF-2-alpha kinase GCN2 (Homo sapiens), Q9P2K8 [S808G]; details: Compound concentration 1000.0 nM
[13] = target: Serine/threonine-protein kinase haspin (Homo sapiens) (UniProt Q8TF76); details: Compound concentration 1000.0 nM
[14] = target: Mitogen-activated protein kinase 10 (Homo sapiens) (UniProt P53779); details: Compound concentration 1000.0 nM
[15] = tested on: Mast/stem cell growth factor receptor Kit (Homo sapiens), P10721 [V559D,T670I]; details: Compound concentration 1000.0 nM
[16] = tested on: Mast/stem cell growth factor receptor Kit (Homo sapiens), P10721 [V559D,V654A]; details: Compound concentration 1000.0 nM
[17] = target: Serine/threonine-protein kinase STK11 (Homo sapiens) (UniProt Q15831); details: Compound concentration 1000.0 nM
[18] = target: Tyrosine-protein kinase Lyn (Homo sapiens) (UniProt P07948); details: Compound concentration 1000.0 nM
[19] = target: Mitogen-activated protein kinase kinase kinase kinase 2 (Homo sapiens) (UniProt Q12851); details: Compound concentration 1000.0 nM
[20] = target: Myosin light chain kinase (Homo sapiens) (UniProt Q32MK0); details: Compound concentration 1000.0 nM
[21] = target: Serine/threonine-protein kinase MRCK beta (Homo sapiens) (UniProt Q9Y5S2); details: Compound concentration 1000.0 nM
[22] = target: Myosin light chain kinase family member 4 (Homo sapiens) (UniProt Q86YV6); details: Compound concentration 1000.0 nM
[23] = target: Serine/threonine-protein kinase Nek2 (Homo sapiens) (UniProt P51955); details: Compound concentration 1000.0 nM
[24] = target: Serine/threonine-protein kinase OSR1 (Homo sapiens) (UniProt O95747); details: Compound concentration 1000.0 nM
[25] = target: Mitogen-activated protein kinase 11 (Homo sapiens) (UniProt Q15759); details: Compound concentration 1000.0 nM
Mitogen-activated protein kinase 11 (Homo sapiens), sequence (Q15759 whole entry): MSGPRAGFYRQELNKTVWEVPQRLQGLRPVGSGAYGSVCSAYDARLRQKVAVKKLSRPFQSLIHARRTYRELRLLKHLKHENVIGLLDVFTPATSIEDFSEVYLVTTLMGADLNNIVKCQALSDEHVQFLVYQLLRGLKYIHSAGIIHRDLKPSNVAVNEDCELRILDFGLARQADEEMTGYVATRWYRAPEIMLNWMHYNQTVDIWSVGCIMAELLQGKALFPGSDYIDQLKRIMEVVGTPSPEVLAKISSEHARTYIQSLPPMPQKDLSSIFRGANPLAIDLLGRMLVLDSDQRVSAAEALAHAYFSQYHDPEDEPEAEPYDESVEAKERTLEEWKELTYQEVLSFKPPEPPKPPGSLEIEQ

[26] = target: Platelet-derived growth factor receptor alpha (Homo sapiens) (UniProt P16234); details: Compound concentration 1000.0 nM
[27] = tested on: Phosphatidylinositol 4,5-bisphosphate 3-kinase catalytic subunit alpha isoform (Homo sapiens), P42336 [H1047L]; details: Compound concentration 1000.0 nM
[28] = tested on: Phosphatidylinositol 4,5-bisphosphate 3-kinase catalytic subunit alpha isoform (Homo sapiens), P42336 [I800L]; details: Compound concentration 1000.0 nM
[29] = target: Phosphatidylinositol 4,5-bisphosphate 3-kinase catalytic subunit gamma isoform (Homo sapiens) (UniProt P48736); details: Compound concentration 1000.0 nM
[30] = target: Membrane-associated tyrosine- and threonine-specific cdc2-inhibitory kinase (Homo sapiens) (UniProt Q99640); details: Compound concentration 1000.0 nM
[31] = target: Serine/threonine-protein kinase N1 (Homo sapiens) (UniProt Q16512); details: Compound concentration 1000.0 nM
[32] = target: Protein kinase C eta type (Homo sapiens) (UniProt P24723); details: Compound concentration 1000.0 nM
[33] = target: Serine/threonine-protein kinase D3 (Homo sapiens) (UniProt O94806); details: Compound concentration 1000.0 nM
Serine/threonine-protein kinase D3 (Homo sapiens), sequence (O94806 whole entry): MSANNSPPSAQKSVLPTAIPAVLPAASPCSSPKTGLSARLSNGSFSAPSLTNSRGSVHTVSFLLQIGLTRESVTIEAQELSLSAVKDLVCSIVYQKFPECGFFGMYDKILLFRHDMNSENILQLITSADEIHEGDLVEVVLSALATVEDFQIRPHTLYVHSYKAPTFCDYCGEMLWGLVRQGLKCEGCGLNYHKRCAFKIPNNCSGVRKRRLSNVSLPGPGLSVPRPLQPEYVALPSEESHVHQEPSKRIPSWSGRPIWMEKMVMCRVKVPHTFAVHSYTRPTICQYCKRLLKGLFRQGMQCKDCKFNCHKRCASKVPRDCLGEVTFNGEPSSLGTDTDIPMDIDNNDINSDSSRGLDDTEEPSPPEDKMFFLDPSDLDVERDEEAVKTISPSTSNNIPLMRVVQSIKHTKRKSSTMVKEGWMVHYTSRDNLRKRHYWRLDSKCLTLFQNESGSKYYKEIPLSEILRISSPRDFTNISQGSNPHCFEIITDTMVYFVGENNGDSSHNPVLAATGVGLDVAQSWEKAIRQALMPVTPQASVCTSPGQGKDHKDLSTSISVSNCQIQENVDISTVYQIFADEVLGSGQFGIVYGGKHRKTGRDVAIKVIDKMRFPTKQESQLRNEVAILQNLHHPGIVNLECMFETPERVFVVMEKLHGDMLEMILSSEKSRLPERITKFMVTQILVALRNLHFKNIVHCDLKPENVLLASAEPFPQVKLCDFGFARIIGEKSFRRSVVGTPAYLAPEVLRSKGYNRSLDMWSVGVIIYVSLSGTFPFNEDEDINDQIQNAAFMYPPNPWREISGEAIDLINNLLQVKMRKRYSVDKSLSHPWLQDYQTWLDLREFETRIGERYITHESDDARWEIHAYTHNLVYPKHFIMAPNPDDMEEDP

[34] = tested on: Proto-oncogene tyrosine-protein kinase receptor Ret (Homo sapiens), P07949 [V804M]; details: Compound concentration 1000.0 nM
[35] = target: Serine/threonine-protein kinase RIO2 (Homo sapiens) (UniProt Q9BVS4); details: Compound concentration 1000.0 nM
[36] = target: Ribosomal protein S6 kinase alpha-3 (Homo sapiens) (UniProt P51812); details: Compound concentration 1000.0 nM
[37] = target: Ribosomal protein S6 kinase alpha-2 (Homo sapiens) (UniProt Q15349); details: Compound concentration 1000.0 nM
Ribosomal protein S6 kinase alpha-2 (Homo sapiens), sequence (Q15349 whole entry): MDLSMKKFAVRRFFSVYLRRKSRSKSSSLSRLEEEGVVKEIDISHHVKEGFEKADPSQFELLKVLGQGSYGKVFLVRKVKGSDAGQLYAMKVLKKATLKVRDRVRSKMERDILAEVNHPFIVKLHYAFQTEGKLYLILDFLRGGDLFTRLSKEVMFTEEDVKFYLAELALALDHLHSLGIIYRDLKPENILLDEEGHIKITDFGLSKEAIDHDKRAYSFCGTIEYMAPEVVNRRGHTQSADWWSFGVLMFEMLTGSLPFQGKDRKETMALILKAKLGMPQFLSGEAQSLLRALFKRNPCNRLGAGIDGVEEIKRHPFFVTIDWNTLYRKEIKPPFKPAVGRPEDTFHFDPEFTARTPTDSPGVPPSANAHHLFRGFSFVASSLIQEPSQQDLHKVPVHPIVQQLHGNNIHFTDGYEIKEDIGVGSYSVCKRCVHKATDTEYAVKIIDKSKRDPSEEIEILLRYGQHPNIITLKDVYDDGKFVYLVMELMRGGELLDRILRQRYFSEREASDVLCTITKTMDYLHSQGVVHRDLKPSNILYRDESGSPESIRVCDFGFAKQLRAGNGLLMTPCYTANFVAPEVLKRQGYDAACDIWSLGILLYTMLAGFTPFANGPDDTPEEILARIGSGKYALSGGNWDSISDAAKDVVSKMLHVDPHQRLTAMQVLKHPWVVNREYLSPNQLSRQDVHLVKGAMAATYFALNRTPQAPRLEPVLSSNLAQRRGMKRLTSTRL

[38] = target: Ribosomal protein S6 kinase alpha-6 (Homo sapiens) (UniProt Q9UK32); details: Compound concentration 1000.0 nM
Ribosomal protein S6 kinase alpha-6 (Homo sapiens), sequence (Q9UK32 whole entry): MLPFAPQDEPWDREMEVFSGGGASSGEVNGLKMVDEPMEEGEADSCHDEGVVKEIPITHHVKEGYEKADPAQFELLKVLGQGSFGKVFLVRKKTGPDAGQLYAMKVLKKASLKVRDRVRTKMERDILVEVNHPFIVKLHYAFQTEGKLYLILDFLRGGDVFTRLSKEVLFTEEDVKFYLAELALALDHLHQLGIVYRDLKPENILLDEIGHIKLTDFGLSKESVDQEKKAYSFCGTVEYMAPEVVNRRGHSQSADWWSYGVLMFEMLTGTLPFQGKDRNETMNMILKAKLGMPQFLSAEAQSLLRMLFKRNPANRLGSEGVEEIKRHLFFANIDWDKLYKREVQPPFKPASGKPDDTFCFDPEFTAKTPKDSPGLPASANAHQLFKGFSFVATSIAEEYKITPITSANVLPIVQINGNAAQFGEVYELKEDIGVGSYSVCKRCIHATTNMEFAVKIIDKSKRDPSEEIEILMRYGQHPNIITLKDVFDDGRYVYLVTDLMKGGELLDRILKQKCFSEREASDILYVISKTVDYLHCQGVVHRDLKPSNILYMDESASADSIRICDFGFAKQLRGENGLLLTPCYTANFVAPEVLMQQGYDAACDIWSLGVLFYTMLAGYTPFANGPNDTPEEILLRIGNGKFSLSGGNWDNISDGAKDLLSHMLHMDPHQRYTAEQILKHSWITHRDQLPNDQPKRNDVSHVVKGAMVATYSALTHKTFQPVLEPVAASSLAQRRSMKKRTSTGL

[39] = target: Serine/threonine-protein kinase SIK1 (Homo sapiens) (UniProt P57059); details: Compound concentration 1000.0 nM
[40] = target: SRSF protein kinase 1 (Homo sapiens) (UniProt Q96SB4); details: Compound concentration 1000.0 nM
[41] = target: Angiopoietin-1 receptor (Homo sapiens) (UniProt Q02763); details: Compound concentration 1000.0 nM
[42] = target: Non-receptor tyrosine-protein kinase TYK2 (Homo sapiens) (UniProt P29597); details: Compound concentration 1000.0 nM
Non-receptor tyrosine-protein kinase TYK2 (Homo sapiens), sequence (P29597 whole entry): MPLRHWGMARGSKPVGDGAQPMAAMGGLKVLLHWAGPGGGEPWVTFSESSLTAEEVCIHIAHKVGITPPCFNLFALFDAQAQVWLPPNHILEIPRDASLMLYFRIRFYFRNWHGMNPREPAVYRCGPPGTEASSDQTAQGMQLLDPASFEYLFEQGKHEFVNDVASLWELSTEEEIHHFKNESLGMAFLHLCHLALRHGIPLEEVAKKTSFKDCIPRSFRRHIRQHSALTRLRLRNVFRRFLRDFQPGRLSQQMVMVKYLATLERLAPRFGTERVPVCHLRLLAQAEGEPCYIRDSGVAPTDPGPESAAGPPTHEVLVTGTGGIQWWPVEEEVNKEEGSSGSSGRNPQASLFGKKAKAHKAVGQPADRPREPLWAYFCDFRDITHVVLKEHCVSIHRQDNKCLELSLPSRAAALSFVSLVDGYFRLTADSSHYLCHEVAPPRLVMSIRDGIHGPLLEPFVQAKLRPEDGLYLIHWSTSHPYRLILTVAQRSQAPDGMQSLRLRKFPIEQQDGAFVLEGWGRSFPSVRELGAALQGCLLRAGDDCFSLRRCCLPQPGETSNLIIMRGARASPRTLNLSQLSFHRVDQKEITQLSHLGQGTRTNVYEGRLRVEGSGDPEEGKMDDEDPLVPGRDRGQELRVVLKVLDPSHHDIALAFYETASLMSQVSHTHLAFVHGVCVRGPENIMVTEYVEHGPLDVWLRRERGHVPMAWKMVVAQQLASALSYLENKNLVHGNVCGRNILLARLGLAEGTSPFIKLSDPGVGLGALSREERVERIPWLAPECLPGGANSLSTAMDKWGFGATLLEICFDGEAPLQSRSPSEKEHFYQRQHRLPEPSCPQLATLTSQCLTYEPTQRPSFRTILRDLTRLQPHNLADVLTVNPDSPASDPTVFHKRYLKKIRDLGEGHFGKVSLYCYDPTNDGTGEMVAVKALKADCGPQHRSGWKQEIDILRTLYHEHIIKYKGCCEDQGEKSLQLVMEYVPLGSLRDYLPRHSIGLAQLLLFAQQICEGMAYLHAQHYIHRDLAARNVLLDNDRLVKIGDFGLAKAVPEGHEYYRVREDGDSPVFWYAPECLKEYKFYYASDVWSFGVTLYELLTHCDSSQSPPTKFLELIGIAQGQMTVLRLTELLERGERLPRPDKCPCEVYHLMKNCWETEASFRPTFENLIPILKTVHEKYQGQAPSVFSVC

[43] = target: Wee1-like protein kinase (Homo sapiens) (UniProt P30291); details: Compound concentration 1000.0 nM
[44] = target: 5-hydroxytryptamine receptor 1D (Homo sapiens) (UniProt P28221); details: Compound concentration 10.0 uM
[45] = target: Mu-type opioid receptor (Homo sapiens) (UniProt P35372); details: Compound concentration 10.0 uM

Cc1c(NC(=O)c2cc(C(N)=O)nc3cc(F)ccc23)c(C(F)(F)F)nn1Cc1ccc(C#N)cc1 [BAY-876]
inactive: residual activity [1] 81% | residual activity [2] 83% | residual activity [3] 100% | residual activity [4] 90% | residual activity [5] 95% | residual activity [6] 77% | residual activity [7] 66% | residual activity [8] 84% | residual activity [9] 100% | residual activity [10] 59% | residual activity [11] 100% | residual activity [12] 100% | residual activity [13] 67% | residual activity [14] 85% | residual activity [15] 89% | residual activity [16] 58% | residual activity [17] 100% | residual activity [18] 100% | residual activity [19] 88% | residual activity [20] 79% | residual activity [21] 100% | residual activity [22] 90% | residual activity [23] 100% | residual activity [24] 67% | residual activity [25] 88% | residual activity [26] 73% | residual activity [27] 88% | residual activity [28] 78% | residual activity [29] 80% | residual activity [30] 99% | residual activity [31] 98% | residual activity [32] 95% | residual activity [33] 74% | residual activity [34] 100% | residual activity [35] 76% | residual activity [36] 87% | residual activity [37] 86% | residual activity [38] 78% | residual activity [39] 100% | residual activity [40] 83% | residual activity [41] 92% | residual activity [42] 83% | residual activity [43] 94% | inhibition [44] 6.11% | inhibition [45] 6.68%

Cc1c(NC(=O)c2cc(C(N)=O)nc3cc(F)ccc23)c(C(F)(F)F)nn1Cc1ccc(C(C)(C)C)cc1 [BAY-588]
inactive: residual activity [1] 100% | residual activity [2] 83% | residual activity [3] 100% | residual activity [4] 98% | residual activity [5] 100% | residual activity [6] 100% | residual activity [7] 93% | residual activity [8] 100% | residual activity [9] 100% | residual activity [10] 100% | residual activity [11] 91% | residual activity [12] 56% | residual activity [13] 100% | residual activity [14] 100% | residual activity [15] 100% | residual activity [16] 98% | residual activity [17] 100% | residual activity [18] 99% | residual activity [19] 100% | residual activity [20] 100% | residual activity [21] 96% | residual activity [22] 100% | residual activity [23] 100% | residual activity [24] 100% | residual activity [25] 91% | residual activity [26] 100% | residual activity [27] 100% | residual activity [28] 100% | residual activity [29] 100% | residual activity [30] 100% | residual activity [31] 100% | residual activity [32] 97% | residual activity [33] 100% | residual activity [34] 100% | residual activity [35] 76% | residual activity [36] 100% | residual activity [37] 100% | residual activity [38] 100% | residual activity [39] 87% | residual activity [40] 100% | residual activity [41] 94% | residual activity [42] 100% | residual activity [43] 100% | inhibition [44] -4.9% | inhibition [45] 4.84%
